{
  "source": "patent US5116857A",
  "about": "“Method of increasing gastrointestinal motility with substituted benzamides” (Laboratoires Delagrange Div. Societe d'Applications …, priority 1988, dated 1992)",
  "key": {"[1]": {"tested_on": "guinea-pigs", "assay": "Gastric emptying measured by x-ray localization of barium sulfate spheroids in guinea pigs after i.p. administration", "type": "in vivo, guinea pig", "conditions": "for Gastric emptying (percentage of spheroids leaving the stomach) after 1 hour / Gastric emptying (percentage of spheroids leaving the stomach) after 2 hours: 1 mg/kg i.p.; for Gastric emptying (percentage of spheroids leaving the stomach) after 1 hour / Gastric emptying (percentage of spheroids leaving the stomach) after 2 hours / Gastric emptying after 2 hours: guinea-pigs; for Gastric emptying (percentage of spheroids leaving the stomach) after 2 hours: control group 28%; for Gastric emptying after 2 hours: 5 mg/kg, control group 24.8%; for Gastric emptying at 1 mg/kg compared with metoclopramide 5 mg/kg: 1 mg/kg of compound vs 5 mg/kg of metoclopramide", "method": "Feeding of the animals were interrupted 14 hours before measurement of gastric emptying. The experimentation was conducted under weak illumination, with the least possible noise and disturbances, solely by experimentors having daily contact with the guinea pigs and having sufficient initial training in handling the animals. The animals were then subjected to minimal stress.\nThe measurement of gastric emptying was carried out by x-ray localization (50 KV, 30 mA, 0.5-0.8 s.), on Kodak plates (NS-2T, 13×18 cm) of barium sulfate spheroids (approximately 30, 1 mm in diameter) coated with polystyrene, which the guinea pigs were made to swallow by placing them in the back of the throat, in a solution of 0.2 ml of 1% carboxymethylcellulose with 0.05 ml of glycerine, so as to initiate rapid and voluntary deglutition.\nThe passage of the spheroids was followed for 3 to 4 hours, the animals being placed in their customary cages for that time and taken out only 5 minutes before x-ray exposure (at intervals of 30-60 minutes). During the x-ray procedure, the animals were placed in individual holding cages, keeping them comfortably in a stable position, the cage being sufficiently sized (33×15 cm and 13 cm high) so as to comfortably maintain a 450 to 550 gram guinea pig between the padded walls, the animal being trained to enter the cage and remain there tranquilly and without stress.\nGastric emptying was measured by the number of spheroids leaving the stomach. For each dose of product studied, 6 guinea pigs were used, and the responses were compared to those of guinea pigs receiving the appropriate vehicle.\nCompound (I) was studied at doses of 1 mg/kg and 0.01 mg/kg, Compounds (II) to (V) were studied at a dose of 1 mg/kg, the compounds (VI) to (VIII) at a dose of 5 mg/kg. Metoclopramide was evaluated at doses of 1 mg/kg and 5 mg/kg.\nThe results are recorded in graphic form in FIG. 1. The compounds according to the invention and metoclopromide were dissolved in distilled water and the doses are expressed as base.\nThis emptying is expressed, in FIG. 1 and Table 1, as a percentage of spheroids leaving the stomach."}, "[2]": {"assay": "Acute toxicity, intravenous, male mice", "conditions": "mouse, in vivo, read-out: LD50 (median lethal dose)", "excerpt": "The acute toxicity of the compounds of the invention administered intravenously was studied in male mice."}},
  "data": [
    {"smiles": "CCN(CC)CCNC(=O)c1cc(Cl)c(NC2=NCCS2)cc1OC", "note": "[Compound II, N-[2-(diethylamino)ethyl]-2-methoxy-4-[(4,5-dihydro-2-thiazolyl)amino]-5-chlorobenzamide]", "values": [
      {"measurement": "Gastric emptying (percentage of spheroids leaving the stomach) after 1 hour", "setting": "[1]", "value": 12.5, "unit": "%"},
      {"measurement": "Gastric emptying (percentage of spheroids leaving the stomach) after 2 hours", "setting": "[1]", "value": 60, "unit": "%"},
      {"measurement": "LD50", "setting": "[2]", "value": "40.6 to 48.7", "unit": "mg/kg"}
    ]},
    {"smiles": "C=CCNC(=O)c1cc(Cl)c(NC2=NCCN2)cc1OC", "note": "[Compound VIII, N-allyl-2-methoxy-4-[(4,5-dihydro-1H-imidazol-2-yl)amino]-5-chlorobenzamide]", "values": [
      {"measurement": "Gastric emptying after 2 hours", "setting": "[1]", "value": 47.4, "unit": "%"}
    ]},
    {"smiles": "CCN(CC)CCNC(=O)c1cc(Cl)c(NC2=NCCN2)cc1OC", "note": "[Compound I, N-[2-(diethylamino)ethyl]-2-methoxy-4-[(4,5-dihydro-1H-imidazol-2-yl)-amino]-5-chlorobenzamide]", "values": [
      {"measurement": "Gastric emptying (percentage of spheroids leaving the stomach) after 1 hour", "setting": "[1]", "value": 24, "unit": "%"},
      {"measurement": "Gastric emptying (percentage of spheroids leaving the stomach) after 2 hours", "setting": "[1]", "value": 63, "unit": "%"},
      {"measurement": "Gastric emptying at 1 mg/kg compared with metoclopramide 5 mg/kg", "setting": "[1]", "value": "a result equivalent to the use of 5 mg/kg of metoclopramide"},
      {"measurement": "LD50", "setting": "[2]", "value": "12.8 to 14.4", "unit": "mg/kg"}
    ]},
    {"smiles": "CCN(CC)CCNC(=O)c1cc(Cl)c(NC2=NCCO2)cc1OC", "note": "[Compound III, N-[2-(diethylamino)ethyl]-2-methoxy-4-[(4,5-dihydro-2-oxazolyl)amino]-5-chlorobenzamide]", "values": [
      {"measurement": "Gastric emptying (percentage of spheroids leaving the stomach) after 1 hour", "setting": "[1]", "value": 20, "unit": "%"},
      {"measurement": "Gastric emptying (percentage of spheroids leaving the stomach) after 2 hours", "setting": "[1]", "value": 57, "unit": "%"},
      {"measurement": "LD50", "setting": "[2]", "value": "91 to 116", "unit": "mg/kg"}
    ]},
    {"smiles": "CCN(CC)CCNC(=O)c1cc(Cl)c(N)cc1OC", "note": "[metoclopramide, N-(2-diethylaminoethyl)-2-methoxy-4-amino-5-chlorobenzamide, reference compound]", "values": [
      {"measurement": "Gastric emptying (percentage of spheroids leaving the stomach) after 1 hour", "setting": "[1]", "value": 16, "unit": "%"},
      {"measurement": "Gastric emptying (percentage of spheroids leaving the stomach) after 2 hours", "setting": "[1]", "value": 39, "unit": "%"},
      {"measurement": "Effect on gastric emptying (in words)", "setting": "[1]; intraperitoneal, immobilized guinea-pigs, FIG. 1", "value": "an increase in gastric emptying"},
      {"measurement": "LD50", "setting": "[2]", "value": "25.4 to 37.9", "unit": "mg/kg"}
    ]},
    {"smiles": "CCN(CC)CCNC(=O)c1cc(Cl)c(NC2=NCCN2)cc1O", "note": "[Compound V, N-[2-(diethylamino)ethyl]-2-hydroxy-4-[(4,5-dihydro-1H-imidazol-2-yl)-amino]-5-chlorobenzamide]", "values": [
      {"measurement": "Gastric emptying (percentage of spheroids leaving the stomach) after 1 hour", "setting": "[1]", "value": 32, "unit": "%"},
      {"measurement": "Gastric emptying (percentage of spheroids leaving the stomach) after 2 hours", "setting": "[1]", "value": 55, "unit": "%"},
      {"measurement": "LD50", "setting": "[2]", "value": "65.7 to 76.7", "unit": "mg/kg"}
    ]},
    {"smiles": "CNC(=O)c1cc(Cl)c(NC2=NCCN2)cc1OC", "note": "[Compound IV, N-methyl-2-methoxy-4-[(4,5-dihydro-1H-imidazol-2-yl)amino] -5-chlorobenzamide]", "values": [
      {"measurement": "Gastric emptying (percentage of spheroids leaving the stomach) after 1 hour", "setting": "[1]", "value": 38, "unit": "%"},
      {"measurement": "Gastric emptying (percentage of spheroids leaving the stomach) after 2 hours", "setting": "[1]", "value": 62, "unit": "%"},
      {"measurement": "Gastric emptying at 1 mg/kg compared with metoclopramide 5 mg/kg", "setting": "[1]", "value": "a result equivalent to the use of 5 mg/kg of metoclopramide"},
      {"measurement": "LD50", "setting": "[2]", "value": "95.8 to 138", "unit": "mg/kg"}
    ]},
    {"smiles": "COc1cc(NC2=NCCN2)c(Cl)cc1C(=O)NC(C)C", "note": "[Compound VII, N-isopropyl-2-methoxy-4-[(4,5-dihydro-1H-imidazol-2-yl)amino]-5-chlorobenzamide]", "values": [
      {"measurement": "Gastric emptying after 2 hours", "setting": "[1]", "value": 46.2, "unit": "%"}
    ]}
  ]
}
